What was measured:
blackgrass = assay: Test B pre/postemergence blackgrass; type: in vivo, Alopecurus myosuroides
Summary of the method: (§1)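 Response is a visual 0-to-10 score relative to untreated plants, where 0 means no effect and 10 means complete control, taken twelve to sixteen days after application. Treatments went onto soil at planting and onto foliage of 1- to 4-leaf plants, using a surfactant-containing non-phytotoxic solvent.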

wild oat = assay: Test B pre/postemergence wild oat; type: in vivo, Avena fatua
Summary of the method: as §1

rice = assay: Test B flood test rice; type: in vivo, Oryza sativa
Summary of the method: (§2)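 Each value is a visual injury score relative to controls, with 10 meaning complete control and 0 no effect. Evaluation took place twelve to sixteen days after the 2-leaf-stage plants were treated and kept in the greenhouse.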

smallflower flatsedge = assay: Test B flood test smallflower flatsedge; type: in vivo, Cyperus difformis
Summary of the method: as §2

bamyardgrass = assay: Test B flood test barnyardgrass; type: in vivo, Echinochloa crus-galli
Summary of the method: as §2

[1] = Postemergence, Rate 62 g/ha, scale 0 to 10, 0 is no effect, 10 is complete control
[2] = Postemergence, Rate 250 g/ha, scale 0 to 10, 0 no effect, 10 complete control
[3] = Preemergence, Rate 62 g/ha, scale 0 to 10, 0 is no effect, 10 is complete control
[4] = Preemergence, Rate 125 g/ha, scale 0 to 10 (0 no effect, 10 complete control)
[5] = Preemergence, Rate 250 g/ha, scale of 0 to 10 where 0 is no effect and 10 is complete control
[6] = Preemergence, Rate 500 g/ha, scale 0 (no effect) to 10 (complete control)
[7] = Rate 125 g/ha, Postemergence, scale 0 to 10, 0 no effect, 10 complete control
[8] = Rate 500 g/ha, Postemergence, scale 0 to 10, 0 no effect, 10 complete control
[9] = Rate 125 g/ha, Postemergence section (flood test species), scale 0 to 10, 0 no effect, 10 complete control
[10] = Rate 500 g/ha, listed under Postemergence (flood test species), scale 0 to 10, 0 no effect, 10 complete control
[11] = flood test, listed under Postemergence, Rate 250 g/ha, scale 0 to 10, 0 no effect, 10 complete control
[12] = Preemergence, Rate 62 g/ha, scale 0 to 10 (0 no effect, 10 complete control)
[13] = Rate 31 g/ha, Postemergence section (flood test species), scale 0 to 10
[14] = Rate 250 g/ha, headed Pre-emergence (flood test species), scale 0 to 10 (0 no effect, 10 complete control)
[15] = Rate 500 g/ha, headed Pre-emergence (flood test species), scale 0 to 10 (0 no effect, 10 complete control)
[16] = Rate 1000 g/ha, Pre-emergence (as headed), scale 0 to 10
[17] = Rate 2000 g/ha, Pre-emergence (as headed), scale 0 to 10

Row | Compound | Blackgrass plant response rating (blackgrass; [1]) | Blackgrass plant response rating (blackgrass; [2]) | Plant response rating, Blackgrass (blackgrass; [4]) | Plant response rating, Blackgrass (blackgrass; [5]) | Blackgrass plant response rating (blackgrass; [6]) | Blackgrass plant response rating (blackgrass; [7]) | Blackgrass plant response rating (blackgrass; [8]) | Wild oats plant response rating (wild oat; [1]) | Wild oats plant response rating (wild oat; [2]) | Plant response rating, Wild oats (wild oat; [4]) | Plant response rating, Wild oats (wild oat; [5]) | Wild oats plant response rating (wild oat; [6]) | Wild oats plant response rating (wild oat; [7]) | Wild oats plant response rating (wild oat; [8]) | Rice plant response rating (rice; [1]) | Rice plant response rating (rice; [9]) | Rice plant response rating (rice; [11]) | S. Flatsedge plant response rating (smallflower flatsedge; [1]) | S. Flatsedge plant response rating (smallflower flatsedge; [9]) | S. Flatsedge plant response rating (smallflower flatsedge; [11]) | other results
1 | Cc1cccc(Cl)c1-n1c(=O)on(C(=O)N(c2ccc(F)cc2)C(C)C)c1=O [Compound 53] | 0 | 0 | 1 | 1 | 4 | 0 | 0 | 0 | 0 | 0 | 0 | 0 | 0 | 2 | 0 | 0 | 0 | 0 | 0 | 0 | Plant response rating, Blackgrass (blackgrass; [3]): 0; Rice plant response rating (rice; [10]): 0; S. Flatsedge plant response rating (smallflower flatsedge; [10]): 0; Barnyardgrass plant response rating (bamyardgrass; [1]): 0; Barnyardgrass plant response rating (bamyardgrass; [9]): 0; Barnyardgrass plant response rating (bamyardgrass; [10]): 0; Barnyardgrass plant response rating (bamyardgrass; [11]): 0
2 | Cc1cccc(Cl)c1-n1c(=O)on(C(=O)N(c2ccc(Cl)cc2)C(C)C)c1=O [Compound 54] | 0 | 0 | 0 | 0 | 2 | 0 | 2 | 0 | 0 | 0 | 0 | 0 | 0 | 0 | 0 | 0 | 0 | 0 | 0 | 0 | Plant response rating, Blackgrass (blackgrass; [3]): 0; Rice plant response rating (rice; [10]): 0; S. Flatsedge plant response rating (smallflower flatsedge; [10]): 0; Barnyardgrass plant response rating (bamyardgrass; [1]): 0; Barnyardgrass plant response rating (bamyardgrass; [9]): 0; Barnyardgrass plant response rating (bamyardgrass; [10]): 0; Barnyardgrass plant response rating (bamyardgrass; [11]): 0
3 | Cc1cc(C)c(-n2c(=O)on(C(=O)N(c3ccc(F)cc3)C(C)C)c2=O)c(C)c1 [Compound 60] | 0 | 0 | 0 | 0 | 0 | 0 | 0 | 0 | 0 | 0 | 0 | 0 | 0 | 0 | 0 | 0 | 0 | 0 | 0 | 0 | Blackgrass plant response rating (blackgrass; [12]): 0; Wild oats plant response rating (wild oat; [12]): 0; Rice plant response rating (rice; [10]): 0; S. Flatsedge plant response rating (smallflower flatsedge; [10]): 0; Barnyardgrass plant response rating (bamyardgrass; [1]): 0; Barnyardgrass plant response rating (bamyardgrass; [9]): 0; Barnyardgrass plant response rating (bamyardgrass; [10]): 0; Barnyardgrass plant response rating (bamyardgrass; [11]): 0
4 | COc1cccc(C)c1-n1c(=O)on(C(=O)N(c2ccc(F)cc2F)C(C)C)c1=O [Compound 74] | 0 | 0 | 0 | 0 | 0 | 0 | 3 | 0 | 0 | 0 | 0 | 0 | 0 | 2 | 0 | 0 | 0 | 0 | 0 | 0 | Blackgrass plant response rating (blackgrass; [12]): 0; Wild oats plant response rating (wild oat; [12]): 0; Rice plant response rating (rice; [10]): 0; S. Flatsedge plant response rating (smallflower flatsedge; [10]): 0; Barnyardgrass plant response rating (bamyardgrass; [1]): 0; Barnyardgrass plant response rating (bamyardgrass; [9]): 0; Barnyardgrass plant response rating (bamyardgrass; [10]): 0; Barnyardgrass plant response rating (bamyardgrass; [11]): 0
5 | CCN(CC)C(=O)n1oc(=O)n(Cc2cccs2)c1=O [Compound 77] | 0 | 0 | 0 | 0 | 0 | 0 | 4 | 0 | 0 | 0 | 0 | 0 | 0 | 3 | 0 | 0 | 0 | 0 | 0 | 0 | Blackgrass plant response rating (blackgrass; [12]): 0; Wild oats plant response rating (wild oat; [12]): 0; Rice plant response rating (rice; [10]): 0; S. Flatsedge plant response rating (smallflower flatsedge; [10]): 3; Barnyardgrass plant response rating (bamyardgrass; [1]): 0; Barnyardgrass plant response rating (bamyardgrass; [9]): 0; Barnyardgrass plant response rating (bamyardgrass; [10]): 0; Barnyardgrass plant response rating (bamyardgrass; [11]): 0
6 | Cc1ccccc1Cn1c(=O)on(C(=O)N(c2ccc(F)cc2F)C(C)C)c1=O [Compound 87] | 0 | 1 | 3 | 5 | 7 | 0 | 4 | 0 | 0 | 0 | 4 | 3 | 0 | 3 | 0 | 0 | 0 | 0 | 0 | 0 | Blackgrass plant response rating (blackgrass; [12]): 2; Wild oats plant response rating (wild oat; [12]): 0; Rice plant response rating (rice; [13]): 0; Rice plant response rating (rice; [14]): 0; Plant response rating, Rice (rice; [15]): 0; Rice plant response rating (rice; [16]): 0; Rice plant response rating (rice; [17]): 0; S. Flatsedge plant response rating (smallflower flatsedge; Pre-emergence, Rate 1000 g/ha, scale 0 to 10 (0 no effect, 10 complete control)): 0; S. Flatsedge plant response rating (smallflower flatsedge; [14]): 0; Plant response rating, S. Flatsedge (smallflower flatsedge; [15]): 0; S. Flatsedge plant response rating (smallflower flatsedge; [17]): 0; Barnyardgrass plant response rating (bamyardgrass; [1]): 0; Barnyardgrass plant response rating (bamyardgrass; [13]): 0; Barnyardgrass plant response rating (bamyardgrass; [9]): 0; Barnyardgrass plant response rating (bamyardgrass; [14]): 0; Plant response rating, Barnyardgrass (bamyardgrass; [15]): 0; Barnyardgrass plant response rating (bamyardgrass; [16]): 0; Barnyardgrass plant response rating (bamyardgrass; Rate 2000 g/ha, Pre-emergence (as headed), scale 0 to 10, 0 no effect, 10 complete control): 0; Barnyardgrass plant response rating (bamyardgrass; [11]): 0

Reference: patent publication US6737383B1, “Herbicidal oxadiazolidines” (priority 1999, dated 2004)
